From BindingDB's records for doi:10.1016/j.ejmech.2015.01.009 (Universiti Teknologi Mara (Uitm), 2015)
pIC50: −log10 of the molar value.

Assay: Inhibition of alpha-glucosidase (unknown origin) using pNPG substrate incubated for 15 mins by microplate reader based method

Structure (SMILES) | pIC50
O=C(N/N=C/c1ccc([N+](=O)[O-])cc1)c1ccc(-c2nc3ccccc3s2)cc1 | 4.58
O=C(N/N=C/c1ccc(F)cc1)c1ccc(-c2nc3ccccc3s2)cc1 | 5.15
COc1cc(/C=N/NC(=O)c2ccc(-c3nc4ccccc4s3)cc2)cc(OC)c1 | 4.79
O=C(N/N=C/c1ccccc1)c1ccc(-c2nc3ccccc3s2)cc1 | 5.09
O=C(N/N=C/c1ccc(F)c(Br)c1)c1ccc(-c2nc3ccccc3s2)cc1 | 4.55
COc1ccc(/C=N/NC(=O)c2ccc(-c3nc4ccccc4s3)cc2)cc1 | 4.74
O=C(N/N=C/c1c(O)cc(O)cc1O)c1ccc(-c2nc3ccccc3s2)cc1 | 5.08
O=C(N/N=C/c1ccc(Cl)cc1)c1ccc(-c2nc3ccccc3s2)cc1 | 5.27
COc1cccc(/C=N/NC(=O)c2ccc(-c3nc4ccccc4s3)cc2)c1 | 4.96
COc1ccc(/C=N/NC(=O)c2ccc(-c3nc4ccccc4s3)cc2)c(I)c1O | 4.35
O=C(N/N=C\c1ccccn1)c1ccc(-c2nc3ccccc3s2)cc1 | 4.99
O=C(N/N=C/c1cccs1)c1ccc(-c2nc3ccccc3s2)cc1 | 5.07
O=C(N/N=C\c1ccco1)c1ccc(-c2nc3ccccc3s2)cc1 | 4.89

Now from value to compound:

pIC50 | Structure (SMILES)
5.09 | O=C(N/N=C/c1ccc(O)c(Br)c1)c1ccc(-c2nc3ccccc3s2)cc1
5.04 | O=C(N/N=C/c1cccc(O)c1)c1ccc(-c2nc3ccccc3s2)cc1
4.27 | COc1cc(/C=N/NC(=O)c2ccc(-c3nc4ccccc4s3)cc2)ccc1O
4.93 | O=C(N/N=C/c1cc(O)ccc1O)c1ccc(-c2nc3ccccc3s2)cc1
4.95 | O=C(N/N=C/c1cc(O)cc(O)c1)c1ccc(-c2nc3ccccc3s2)cc1
5.19 | COc1ccc(O)c(/C=N/NC(=O)c2ccc(-c3nc4ccccc4s3)cc2)c1
4.95 | O=C(N/N=C/c1ccc(O)cc1)c1ccc(-c2nc3ccccc3s2)cc1
4.95 | O=C(N/N=C/c1cccc(O)c1O)c1ccc(-c2nc3ccccc3s2)cc1
5.16 | COc1ccc(/C=N/NC(=O)c2ccc(-c3nc4ccccc4s3)cc2)c(O)c1
5.26 | O=C(N/N=C/c1ccccc1O)c1ccc(-c2nc3ccccc3s2)cc1
4.82 | O=C(N/N=C/c1ccc(O)c(O)c1)c1ccc(-c2nc3ccccc3s2)cc1
5.25 | O=C(N/N=C/c1ccc(O)cc1O)c1ccc(-c2nc3ccccc3s2)cc1
